From US12043600B2, “Microbiocidal compounds” (SYNGENTA CROP PROTECTION AG, priority 2018, dated 2024)

Experiments:
[1] = test system: Glomerella lagenarium (Colletotrichum lagenarium); test: Glomerella lagenarium (Colletotrichum lagenarium)/Liquid Culture (Anthracnose); format: cell-based; details: Colletotrichum orbiculare, liquid culture, compared to untreated control
[2] = test system: Botryotinia fuckeliana (Botrytis cinerea); test: Botryotinia fuckeliana (Botrytis cinerea)/Liquid Culture (Gray Mould); format: cell-based; details: liquid culture, compared to untreated control
Description: Conidia of the fungus from cryogenic storage are directly mixed into nutrient broth (Vogels broth). After placing a (DMSO) solution of test compound into a microtiter plate (96-well format), the nutrient broth containing the fungal spores is added.

[3] = test system: Plasmopara viticola; test: whole plant or invertebrate; format: in vivo; details: foliar, read-out: control of Plasmopara viticola
[4] = test system: Phytophthora infestans; test: whole plant or invertebrate; format: in vivo; details: in Solanum lycopersicum, foliar, read-out: control of Phytophthora infestans
[5] = test system: Blumeria graminis f. sp. tritici (Erysiphe graminis f. sp. tritici); test: Blumeria graminis f. sp. tritici/Wheat/Leaf Disc Preventative (Powdery Mildew on Wheat); format: in vivo; details: foliar, wheat leaf disc preventative, compared to untreated control
Description: Wheat leaf segments cv. Kanzler are placed on agar in a multiwell plate (24-well format) and sprayed with the formulated test compound diluted in water. The leaf disks are inoculated by shaking powdery mildew infected plants above the test plates 1 day after application. The inoculated leaf disks are incubated at 20° C. and 60% rh under a light regime of 24 h darkness followed by 12 h light/12 h darkness in a climate chamber and the activity of a compound is assessed as percent disease control compared to untreated when an appropriate level of disease damage appears on untreated check leaf segments (6-8 days after application).

[6] = test system: Mycosphaerella arachidis (Cercospora arachidicola); test: Mycosphaerella arachidis (Cercospora arachidicola)/Liquid Culture (Early Leaf Spot); format: cell-based; details: liquid culture, compared to untreated control
Description: (§1) Conidia of the fungus from cryogenic storage are directly mixed into nutrient broth (PDB potato dextrose broth). After placing a (DMSO) solution of test compound into a microtiter plate (96-well format), the nutrient broth containing the fungal spores is added.

[7] = test system: Monographella nivalis (Microdochium nivale); test: Monographella nivalis (Microdochium nivale)/Liquid Culture (Foot Rot Cereals); format: cell-based; details: liquid culture, compared to untreated control
Description: as §1

[8] = test system: Mycosphaerella graminicola (Septoria tritici); test: Mycosphaerella graminicola (Septoria tritici)/Liquid Culture (Septoria Blotch); format: cell-based; details: Zymoseptoria tritici; 20 ppm; liquid culture; compared to untreated control
Description: Conidia of the fungus from cryogenic storage are directly mixed into nutrient broth (PDB potato dextrose broth). After placing a (DMSO) solution of test compound into a microtiter plate (96-well format), the nutrient broth containing the fungal spores is added. […] The data are presented as the percentage of disease control of each compound for the biological tests against G. lagenarium (Example B3), P. recondita preventative (Example B13), P. teres (Example B15) and M. graminicola (Example B19) as described above. The testing rates of each biological test is specifically described in table C1 below.

[9] = test system: Phaeosphaeria nodorum (Septoria nodorum); test: Phaeosphaeria nodorum (Septoria nodorum)/Wheat/Leaf Disc Preventative (Glume Blotch); format: in vivo; details: Parastagonospora nodorum, foliar, wheat leaf disc preventative, compared to untreated control
Description: Wheat leaf segments cv. Kanzler are placed on agar in a multiwell plate (24-well format) and sprayed with the formulated test compound diluted in water. The leaf disks are inoculated with a spore suspension of the fungus 2 days after application. The inoculated test leaf disks are incubated at 20° C. and 75% rh under a light regime of 12 h light/12 h darkness in a climate cabinet and the activity of a compound is assessed as percent disease control compared to untreated when an appropriate level of disease damage appears in untreated check leaf disks (5-7 days after application).

[10] = test system: Puccinia recondita f. sp. tritici; test: Puccinia recondita f. sp. tritici/Wheat/Leaf Disc Preventative (Brown Rust); format: in vivo; details: foliar, 200 ppm, wheat leaf disc preventative, compared to untreated control, read-out: control of Puccinia recondita f. sp. tritici
[11] = test system: Puccinia recondita f. sp. tritici; test: Puccinia recondita f. sp. tritici/Wheat/Leaf Disc Curative (Brown Rust); format: in vivo; details: foliar, wheat leaf disc curative, compared to untreated control
Description: Wheat leaf segments cv. Kanzler are placed on agar in multiwell plates (24-well format). The leaf segments are inoculated with a spore suspension of the fungus. Plates are stored in darkness at 19° C. and 75% rh. The formulated test compound diluted in water is applied 1 day after inoculation. The leaf segments are incubated at 19° C. and 75% rh under a light regime of 12 h light/12 h darkness in a climate cabinet and the activity of a compound is assessed as percent disease control compared to untreated when an appropriate level of disease damage appears in untreated check leaf segments (6-8 days after application).

[12] = test system: Magnaporthe grisea (Pyricularia oryzae); test: whole plant or invertebrate; format: in vivo; details: foliar, read-out: control of Magnaporthe grisea
[13] = test system: Phakopsora pachyrhizi; test: Phakopsora pachyrhizi/Soybean/Preventative (Soybean Rust); format: in vivo; details: foliar, 288 h, 200 ppm, soybean leaf disc preventative, compared to untreated control, read-out: control of Phakopsora pachyrhizi

SMILES	inhibition of growth at 20 ppm [1]	inhibition of growth at 20 ppm [2]	pest or weed control at 200 ppm [3]	pest or weed control at 200 ppm [4]	pest or weed control at 200 ppm [5]	inhibition of growth at 20 ppm [6]	inhibition of growth at 20 ppm [7]	inhibition of growth at 20 ppm [8]	pest or weed control at 200 ppm [9]	pest or weed control at 200 ppm [10]	pest or weed control at 200 ppm [11]	melting point	pest or weed control at 200 ppm [12]	pest or weed control at 200 ppm [13]
CO/C=C(\Oc1cc(-n2ncc(C3CC3)n2)ccc1C)C(=O)OC [Compound F-8, methyl (Z)-2-[5-(4-cyclopropyltriazol-2-yl)-2-methyl-phenoxy]-3-methoxy-prop-2-enoate]	≥ 80%	≥ 80%	≥ 80%	≥ 80%	≥ 80%	≥ 80%	≥ 80%	≥ 80%	≥ 80%	–	–	–	–	–
CO/C=C(\Oc1cc(-n2ccc(C3CCCCC3)n2)c(Cl)cc1C)C(=O)OC [Compound E-115, methyl (Z)-2-[4-chloro-5-(3-cyclohexylpyrazol-1-yl)-2-methyl-phenoxy]-3-methoxy-prop-2-enoate]	≥ 80%	–	–	–	≥ 80%	≥ 80%	≥ 80%	≥ 80%	–	≥ 80%	≥ 80%	127 to 129 °C	–	–
CO/C=C(\Oc1cc(-n2ccc(C)n2)c(Cl)cc1C)C(=O)OC [Compound E-28, methyl (Z)-2-[4-chloro-2-methyl-5-(3-methylpyrazol-1-yl)phenoxy]-3-methoxy-prop-2-enoate]	≥ 80%	–	≥ 80%	–	≥ 80%	≥ 80%	≥ 80%	≥ 80%	–	≥ 80%	≥ 80%	–	–	–
CO/C=C(\Oc1cc(-n2ccc(C3CC3(F)F)n2)ccc1C)C(=O)OC (centres unmarked) [Compound E-26, methyl (Z)-2-[5-[3-(2,2-difluorocyclopropyl)pyrazol-1-yl]-2-methyl-phenoxy]-3-methoxy-prop-2-enoate]	≥ 80%	–	≥ 80%	≥ 80%	≥ 80%	≥ 80%	≥ 80%	≥ 80%	≥ 80%	≥ 80%	≥ 80%	–	≥ 80%	–
CO/C=C(\Oc1cc(-n2ccc(C3CCCCC3)n2)cc(C)c1C)C(=O)OC [Compound E-110, methyl (Z)-2-[5-(3-cyclohexylpyrazol-1-yl)-2,3-dimethyl-phenoxy]-3-methoxy-prop-2-enoate]	≥ 80%	–	≥ 80%	≥ 80%	–	≥ 80%	≥ 80%	≥ 80%	≥ 80%	≥ 80%	≥ 80%	90 to 93 °C	≥ 80%	–
CO/C=C(\Oc1cc(-n2ccc(C(F)(F)F)n2)ccc1Br)C(=O)OC [Compound E-87, methyl (Z)-2-[2-bromo-5-[3-(trifluoromethyl)pyrazol-1-yl]phenoxy]-3-methoxy-prop-2-enoate]	≥ 80%	≥ 80%	≥ 80%	≥ 80%	≥ 80%	≥ 80%	≥ 80%	≥ 80%	–	≥ 80%	–	–	–	≥ 50%
CO/C=C(\Oc1cc(-n2ccc(C(F)F)n2)ccc1Br)C(=O)OC [Compound E-86, methyl (Z)-2-[2-bromo-5-[3-(difluoromethyl)pyrazol-1-yl]phenoxy]-3-methoxy-prop-2-enoate]	≥ 80%	≥ 80%	–	–	≥ 80%	≥ 80%	≥ 80%	≥ 80%	≥ 80%	≥ 80%	–	–	≥ 80%	–
CCc1ccn(-c2ccc(C)c(O/C(=C\OC)C(=O)OC)c2)n1 [Compound E-91, methyl (Z)-2-[5-(3-ethylpyrazol-1-yl)-2-methyl-phenoxy]-3-methoxy-prop-2-enoate]	≥ 80%	≥ 80%	–	–	≥ 80%	≥ 80%	≥ 80%	≥ 80%	–	≥ 80%	–	–	–	≥ 50%
CO/C=C(\Oc1cc(-n2cc(Cl)c(C(C)C)n2)ccc1C)C(=O)OC [Compound E-11, methyl (Z)-2-[5-(4-chloro-3-isopropyl-pyrazol-1-yl)-2-methyl-phenoxy]-3-methoxy-prop-2-enoate]	–	–	≥ 80%	–	–	≥ 80%	≥ 80%	≥ 80%	≥ 80%	≥ 80%	≥ 80%	95 to 100 °C	≥ 80%	–
CO/C=C(\Oc1cc(-n2ccc(C)n2)ccc1C)C(=O)OC [Compound E-104, methyl (Z)-3-methoxy-2-[2-methyl-5-(3-methylpyrazol-1-yl)phenoxy]prop-2-enoate]	≥ 80%	≥ 80%	–	–	≥ 80%	≥ 80%	≥ 80%	≥ 80%	≥ 80%	≥ 80%	–	–	≥ 80%	–
CO/C=C(\Oc1cc(-n2ccc(C3CC3)n2)ccc1Br)C(=O)OC [Compound E-97, methyl (Z)-2-[2-bromo-5-(3-cyclopropylpyrazol-1-yl)phenoxy]-3-methoxy-prop-2-enoate]	≥ 80%	≥ 80%	–	≥ 80%	≥ 80%	≥ 80%	≥ 80%	≥ 80%	–	≥ 80%	–	–	–	≥ 50%
CO/C=C(\Oc1cc(-n2ccc(COC)n2)ccc1C)C(=O)OC [Compound E-77, methyl (Z)-3-methoxy-2-[5-[3-(methoxymethyl)pyrazol-1-yl]-2-methyl-phenoxy]prop-2-enoate]	≥ 80%	–	≥ 80%	–	≥ 80%	≥ 80%	≥ 80%	≥ 80%	–	≥ 80%	≥ 80%	107 to 110 °C	–	≥ 50%
CO/C=C(\Oc1cc(-n2cc(C#N)cn2)ccc1C)C(=O)OC [Compound E-55, methyl (Z)-2-[5-(4-cyanopyrazol-1-yl)-2-methyl-phenoxy]-3-methoxy-prop-2-enoate]	–	≥ 80%	–	–	–	≥ 80%	≥ 80%	≥ 80%	–	≥ 80%	–	–	–	–
